These results are taken from publication PMC11472320, “Computationally Driven Discovery of a BCR-ABL1 Kinase Inhibitor with Activity in Multidrug-Resistant Chronic Myeloid Leukemia” (Journal of Medicinal Chemistry, 2024).

Broadly, the IC50 is the concentration that gives 50% inhibition. What is called Papp A→B is how fast a substance crosses the layer from the apical side. Lower therefore signals slow passage. For orientation: Papp B→A means how fast a substance crosses the layer from the basolateral side. The efflux ratio is the permeability from basolateral to apical divided by that in the opposite direction, in the common usage. One may read the logD as lipophilicity at a set pH, counting ionised and neutral species. A higher logD goes with higher lipophilicity.

Data set [1] deals with MDCKII-MDR1 cells. Conditions: cited from earlier work.
Data set [2] addresses BCR-ABL1 wt (Homo sapiens, UniProt P00519). Nature of the data set: KinaseProfiler enzymatic radiometric kinase assay. As to conditions: read-out: Kinase IC50 BCR-ABL1 wt; [ATP] = 10 µM, n = 2.
A short description of data set [3]: Plasma protein binding by equilibrium dialysis. The class given is in vitro ADME. Conditions: mouse plasma; for recovery / remaining at 6 h / fraction unbound: both sexes, CD-1; for fraction unbound: read-out: %Bound (converted).
Data set [4] addresses mutant BCR-ABL1 kinases. Nature of the data set: Biochemical kinase inhibition, summary statements. More on the design: species or system human. Conditions: read-out: IC50 against mutant BCR-ABL1 kinases.
For data set [5], the target named is cSRC wt (Homo sapiens, UniProt P12931). Nature of the data set: KinaseProfiler enzymatic radiometric kinase assay.
Sequence of cSRC wt (P12931 whole entry): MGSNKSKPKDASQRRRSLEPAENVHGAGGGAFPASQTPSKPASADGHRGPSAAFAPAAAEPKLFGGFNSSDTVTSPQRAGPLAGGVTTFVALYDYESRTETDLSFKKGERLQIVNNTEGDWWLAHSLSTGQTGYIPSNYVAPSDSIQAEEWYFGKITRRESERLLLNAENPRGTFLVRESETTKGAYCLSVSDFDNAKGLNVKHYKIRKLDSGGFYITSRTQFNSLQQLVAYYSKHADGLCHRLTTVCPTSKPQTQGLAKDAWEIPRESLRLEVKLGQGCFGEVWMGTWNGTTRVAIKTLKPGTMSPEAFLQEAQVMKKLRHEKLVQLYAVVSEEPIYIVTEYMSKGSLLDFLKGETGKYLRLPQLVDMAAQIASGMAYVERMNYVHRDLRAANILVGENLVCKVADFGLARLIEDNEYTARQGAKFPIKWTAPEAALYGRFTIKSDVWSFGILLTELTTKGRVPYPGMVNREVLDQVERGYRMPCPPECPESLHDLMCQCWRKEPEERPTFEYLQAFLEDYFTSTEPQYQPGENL
Data set [6] in a line: in vitro. Conditions: human, Caco-2.
A short description of data set [7]: Plasma protein binding by equilibrium dialysis. The class given is in vitro ADME. Conditions: human plasma; for fraction unbound / recovery / remaining at 6 h: both sexes. For orientation: Equilibrium dialysis compares concentrations on both sides of a semipermeable membrane.
Data set [8] can be described thus: Aqueous solubility. It is filed as physicochemical. Conditions: pH 7.4.
Data set [9] can be described thus: Lipophilicity logD7.4. As to conditions: pH 7.4. The class given is physicochemical.
The nature of data set [10]: Metabolic stability in hepatocytes. It is filed as in vitro ADME, human. Conditions: for hepatocyte CLint: both sexes, read-out: HEPClint (H); for hepatocyte CLint / t1/2 (H): human hepatocytes. The source says: (§1) Metabolic stability in hepatocytes
(§2) Table S4. Hepatocyte details used in the hepatocyte stability assay.
(§3) Human Hepatocytes, Mixed-Gender BiolVT (Cat No. X008001)
(§4) Mouse Hepatocytes, Male-Gender BiolVT (Cat No. M005052)

For data set [11], the system named is Caco-2 cells. As to the kind of experiment: Caco-2 permeability. As to conditions: for Recovery% (BL-AP) / efflux ratio: Table S9. In general terms: Passage across Caco-2 layers is used to estimate intestinal permeability.
Data set [12] concerns MDCKII-MDR1 cells. As to the kind of experiment: MDCKII-MDR1 permeability. As to conditions: for Recovery% (BL-AP) / efflux ratio: Table S7.
Data set [13] concerns the target T1, hERG potassium ion channel (Homo sapiens, UniProt Q12809).
T1 construct: host or cells: HEK 293
As to the kind of experiment: hERG safety evaluation by manual patch-clamp (HEK 293). The class given is cell-based. Conditions: mean ± SEM in Table S11.
Excerpt: hERG Safety evaluation by manual patch-clamp system
aIC50 values are presented as the mean ± SEM, n = 3 independent replicates unless otherwise
𝜇M) and run in triplicate. cValues a s previously reported in Ref. 1 .dMean of n = 2 independent
Points indicate the mean, and error bars indicate
the SD; n ≥ 2 independent replicates. IC 50 values ( 𝜇M) are reported beside the dose -response
curves and represent the mean ± SEM.

Data set [14] has as its system MDR1. Nature of the data set: in vitro. Conditions: dog, MDCK-MDR1.
Data set [15] is described as follows: in vitro. Conditions: dog, MDCK-MDR1.
Data set [16] deals with MDR1 (P-gp). As to the kind of experiment: in vitro. As to conditions: dog, MDCK-MDR1.
The nature of data set [17]: Metabolic stability in hepatocytes. It is filed as in vitro ADME, mouse.
Excerpt: as §1, §2, §3, §4

Data set [18] concerns P-glycoprotein (P-gp). Conditions: Figure 1A; cited from earlier work.

Where two headings read alike, the source gives them in different places. Bounds are passed on as bounds.

Sequence of BCR-ABL1 wt (P00519 27-1130 limits assumed): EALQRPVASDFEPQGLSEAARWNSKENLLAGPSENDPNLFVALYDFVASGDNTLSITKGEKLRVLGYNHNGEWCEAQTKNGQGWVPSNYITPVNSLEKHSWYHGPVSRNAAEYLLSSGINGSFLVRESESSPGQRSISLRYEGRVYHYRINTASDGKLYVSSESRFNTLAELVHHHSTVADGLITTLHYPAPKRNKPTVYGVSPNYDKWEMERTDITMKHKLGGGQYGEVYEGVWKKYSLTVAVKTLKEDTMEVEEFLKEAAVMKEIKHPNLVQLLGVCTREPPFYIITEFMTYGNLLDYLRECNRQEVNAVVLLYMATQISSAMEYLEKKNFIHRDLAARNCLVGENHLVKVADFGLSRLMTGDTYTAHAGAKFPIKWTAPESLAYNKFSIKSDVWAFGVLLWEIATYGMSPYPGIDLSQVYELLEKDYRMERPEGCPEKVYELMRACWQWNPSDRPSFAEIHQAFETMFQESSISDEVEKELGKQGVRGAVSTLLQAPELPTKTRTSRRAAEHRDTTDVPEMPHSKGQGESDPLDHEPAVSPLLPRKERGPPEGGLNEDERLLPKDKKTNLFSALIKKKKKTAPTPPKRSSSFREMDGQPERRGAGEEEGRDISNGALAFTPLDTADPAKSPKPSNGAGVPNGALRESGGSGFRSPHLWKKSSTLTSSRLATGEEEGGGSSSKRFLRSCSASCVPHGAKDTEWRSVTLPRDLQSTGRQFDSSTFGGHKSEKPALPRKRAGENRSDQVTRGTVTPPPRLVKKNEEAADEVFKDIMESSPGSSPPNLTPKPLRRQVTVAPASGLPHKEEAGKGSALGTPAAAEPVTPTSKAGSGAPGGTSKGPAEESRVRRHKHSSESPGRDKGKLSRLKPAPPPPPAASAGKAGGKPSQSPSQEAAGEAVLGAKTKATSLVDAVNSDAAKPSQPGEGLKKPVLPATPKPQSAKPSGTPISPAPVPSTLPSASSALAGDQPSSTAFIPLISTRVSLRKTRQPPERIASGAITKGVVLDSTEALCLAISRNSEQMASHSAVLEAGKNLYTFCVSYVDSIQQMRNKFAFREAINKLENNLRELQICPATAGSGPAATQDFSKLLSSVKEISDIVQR
T1 sequence (Q12809 whole entry): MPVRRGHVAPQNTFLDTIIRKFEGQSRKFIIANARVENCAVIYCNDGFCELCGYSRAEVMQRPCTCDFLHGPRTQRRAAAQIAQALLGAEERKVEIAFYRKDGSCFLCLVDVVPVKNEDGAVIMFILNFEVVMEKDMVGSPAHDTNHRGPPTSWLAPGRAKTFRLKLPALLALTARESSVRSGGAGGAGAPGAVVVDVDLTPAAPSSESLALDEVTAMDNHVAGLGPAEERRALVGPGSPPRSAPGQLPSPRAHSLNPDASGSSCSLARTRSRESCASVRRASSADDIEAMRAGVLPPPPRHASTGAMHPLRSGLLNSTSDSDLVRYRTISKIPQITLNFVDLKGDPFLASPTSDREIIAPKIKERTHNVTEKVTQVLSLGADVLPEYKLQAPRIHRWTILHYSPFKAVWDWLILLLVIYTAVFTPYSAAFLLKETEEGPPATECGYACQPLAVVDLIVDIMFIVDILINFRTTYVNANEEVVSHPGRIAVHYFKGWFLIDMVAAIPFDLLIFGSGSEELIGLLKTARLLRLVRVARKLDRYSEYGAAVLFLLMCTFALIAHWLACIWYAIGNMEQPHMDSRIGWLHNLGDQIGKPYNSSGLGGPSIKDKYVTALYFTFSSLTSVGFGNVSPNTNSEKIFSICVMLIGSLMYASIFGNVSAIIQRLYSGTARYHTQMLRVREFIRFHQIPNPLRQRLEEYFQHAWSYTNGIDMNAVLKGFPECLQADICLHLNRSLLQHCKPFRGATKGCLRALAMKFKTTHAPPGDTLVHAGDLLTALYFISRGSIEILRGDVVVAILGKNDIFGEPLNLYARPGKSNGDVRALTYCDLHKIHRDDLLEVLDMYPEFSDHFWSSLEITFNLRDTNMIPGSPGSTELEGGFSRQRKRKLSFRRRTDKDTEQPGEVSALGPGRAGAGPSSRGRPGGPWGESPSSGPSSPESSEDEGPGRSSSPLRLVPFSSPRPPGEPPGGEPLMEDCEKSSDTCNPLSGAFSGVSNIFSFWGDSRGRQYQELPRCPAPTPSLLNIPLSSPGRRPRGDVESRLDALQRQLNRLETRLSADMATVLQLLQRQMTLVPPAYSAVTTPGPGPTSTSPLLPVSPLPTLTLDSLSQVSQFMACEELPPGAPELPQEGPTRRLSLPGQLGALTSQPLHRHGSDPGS

Take `COc1cc2ncnc(Nc3ccc(F)c(Cl)c3)c2cc1OCCON1CCN(C)CC1` [6a]: in data set [1], the “MDCKII-MDR1 Efflux Ratio” value is listed as 8.7 and the P-gp efflux status entry was “P-gp Substrate”.

Consider `COc1cc2c(Nc3cccc(OC)c3Cl)c(C#N)cnc2cc1OCCON1CCN(C)CC1` [12a, 4-((2-Chloro-3-methoxyphenyl)amino)-6-methoxy-7-(2-((4-methylpiperazin-1-yl)oxy)ethoxy)quinoline-3-carbonitrile], for which the IC50 was 20 nM in data set [2], not below 15 nM in data set [4], 14 nM in data set [5] and 5160 nM in data set [13]. For the same compound, the recovery in data set [3] turned out to be 92%; in [6], 76.2%; in [7] it was 92.5%; in data set [15], 95%. The share remaining at 6 h came to 96.7% in data set [3] and 97.8% in data set [7]. In addition, the fraction unbound in data set [3] is 0.119; in [7], 0.0737. Also, the figures for the “%Unbound” value in data set [3] and in [7] were 11.93% and 7.37%, respectively. Besides, the Papp A→B in data set [6] is 6.46 ×10⁻⁶ cm/s; in data set [14], 12.5 ×10⁻⁶ cm/s; in data set [16] it was 12.5 ×10⁻⁶ cm/s. For the same compound, the basolateral-to-apical permeability (Papp B→A) in data set [6] worked out at 23.1 ×10⁻⁶ cm/s; in data set [14] it was 39 ×10⁻⁶ cm/s; in [16] it was 39 ×10⁻⁶ cm/s. Also, the efflux ratio in data set [6] was determined as 3.6; in data set [11] it was 3.58; in [12] it was 3.22; in data set [14], 3.1. For the same compound, the “Aq. Sol.” value in data set [8] was determined as 123 µM. Besides, the logD in [9] was 2.7. In addition, the “Remaining Percentages” value worked out at 100.00% in data set [10] (0.5 min); 87.31% in data set [10] (15 min); 80.64% in data set [10] (30 min); 60.46% in data set [10] (60 min); 46.43% in [10] (90 min); 35.84% in [10] (120 min). Moreover, the hepatocyte CLint in data set [10] was 17.2 µL/min/1e6 cells. Also, the “t1/2 (H)” value in data set [10] is 1.34 h. Moreover, the “Recovery% (BL-AP)” value in [11] amounted to 87.19%; in [12] it was 91.60%. Further, the “Caco-2 Papp (a-b)” value in [11] was found to be 6.5 ×10⁻⁶ cm/s. Also, the “Caco-2 Papp (b-a)” value in data set [11] was found to be 23.1 ×10⁻⁶ cm/s. In addition, the “enhancement in permeability in MDCKII-MDR1 cells relative to bosutinib” value in data set [12] stood at 31 fold.

As to `COc1cc2c(Nc3cccc(OC)c3F)c(C#N)cnc2cc1OCCON1CCN(C)CC1` [13a, 4-((2-Fluoro-3-methoxyphenyl)amino)-6-methoxy-7-(2-((4-methylpiperazin-1-yl)oxy)ethoxy)quinoline-3-carbonitrile], the 50% inhibitory concentration (IC50) was 19 nM in data set [2], not below 15 nM in data set [4] and 34 nM in data set [5]. Besides, the Papp A→B amounted to 2.72 ×10⁻⁶ cm/s in [6], 7.53 ×10⁻⁶ cm/s in data set [14] and 7.5 ×10⁻⁶ cm/s in data set [16]. For the same compound, the results for the Papp B→A in [6], in data set [14] and in data set [16] were 33.6 ×10⁻⁶ cm/s, 54.4 ×10⁻⁶ cm/s and 54.4 ×10⁻⁶ cm/s, respectively. The efflux ratio in data set [6] came out at 12.4; in data set [11], 12.36; in data set [12], 7.26; in data set [14], 7.3. Besides, the values for the recovery in data set [6], in [7] and in data set [15] were 84.8%, 87.8% and 93.1%, respectively. For the same compound, the fraction unbound in data set [7] is 0.13. The amount remaining at 6 h in data set [7] was determined as 98.3%. Besides, the “%Unbound” value in data set [7] is on record as 12.97%. The “Aq. Sol.” value in data set [8] is 29 µM. Besides, in data set [9], the logD was 2.6. Further, the “Remaining Percentages” value in data set [10] (0.5 min) was 100.00%; in data set [10] (15 min), 97.02%; in data set [10] (30 min), 95.67%; in data set [10] (60 min), 80.41%; in [10] (90 min), 67.22%; in data set [10] (120 min), 54.89%. Besides, the hepatocyte CLint in [10] was 10.3 µL/min/1e6 cells. The “t1/2 (H)” value in data set [10] came out at 2.243 h. Also, the “Recovery% (BL-AP)” value came to 92.56% in data set [11] and 105.61% in data set [12]. The “Caco-2 Papp (a-b)” value in data set [11] turned out to be 2.7 ×10⁻⁶ cm/s. The “Caco-2 Papp (b-a)” value in data set [11] was 33.6 ×10⁻⁶ cm/s.

On to `COc1cc(Cl)ccc1Nc1c(C#N)cnc2cc(OCCON3CCN(C)CC3)c(OC)cc12` [15a, 4-((4-Chloro-2-methoxyphenyl)amino)-6-methoxy-7-(2-((4-methylpiperazin-1-yl)oxy)ethoxy)quinoline-3-carbonitrile], for which the “Remaining Percentages” value in data set [17] (0.5 min) came out at 100.00%; in [17] (15 min) it was 55.53%; in data set [17] (30 min), 28.57%; in [17] (60 min), 13.26%; in data set [17] (90 min), 6.75%; in data set [17] (120 min) it was 2.89%. In addition, the “Remaining Percentages” value in [10] (0.5 min) is on record as 100.00%; in data set [10] (15 min) it was 78.44%; in data set [10] (30 min) it was 63.53%; in [10] (60 min) it was 43.29%; in [10] (90 min) it was 27.95%; in data set [10] (120 min), 20.14%. In addition, the values for the half-inhibitory concentration (IC50) in [2], in data set [5] and in data set [13] were 6 nM, 11 nM and 4360 nM, respectively. Moreover, the recovery is 95.9% in [3], 72.2% in data set [6], 95.8% in data set [7] and 84.5% in data set [15]. Also, the amount remaining at 6 h turned out to be 106% in data set [3] and 99.4% in data set [7]. The values for the fraction unbound in data set [3] and in data set [7] were 0.0971 and 0.0773, respectively. Besides, the “%Unbound” value in data set [3] is 9.71%; in data set [7], 7.73%. Further, the figures for the apparent permeability from apical to basolateral (Papp A→B) in data set [6] and in data set [16] were 0.71 ×10⁻⁶ cm/s and 5.9 ×10⁻⁶ cm/s, respectively. Also, the Papp B→A in data set [6] was found to be 4.44 ×10⁻⁶ cm/s; in data set [14], 24.8 ×10⁻⁶ cm/s; in [16], 24.8 ×10⁻⁶ cm/s. Further, the efflux ratio in data set [6] stood at 6.3; in data set [11] it was 6.24; in data set [14] it was 4.2. The “Aq. Sol.” value in data set [8] was found to be 0.8 µM. The log distribution coefficient (logD) in data set [9] was 3.1. In addition, the hepatocyte CLint in data set [10] was determined as 26.8 µL/min/1e6 cells. Moreover, in data set [10], the “t1/2 (H)” value is 0.862 h. Also, the entries for the “Recovery% (BL-AP)” value in [11] and in [12] were 78.22% and 72.29%, respectively. Moreover, the “Caco-2 Papp (a-b)” value in data set [11] was determined as 0.7 ×10⁻⁶ cm/s. In [11], the “Caco-2 Papp (b-a)” value turned out to be 4.4 ×10⁻⁶ cm/s.

For the compound `COc1cc2ncnc(Nc3cccc(Cl)c3F)c2cc1OC(=O)N1CCN(C)C[C@H]1C` [AZD3759], in [1], the “MDCKII-MDR1 Efflux Ratio” value is 0.4 and the P-gp efflux status result is reported as “Not a P-gp Substrate”.

Take `O=C(Nc1ccc(OC(F)(F)Cl)cc1)c1cnc(N2CC[C@@H](O)C2)c(-c2ccn[nH]2)c1` [Asciminib, asciminib]: the P-gp efflux status entry in [18] was “P-gp Substrate”.

As for `Cc1nc(Nc2ncc(C(=O)Nc3c(C)cccc3Cl)s2)cc(N2CCN(CCO)CC2)n1` [Dasatinib, dasatinib], the P-gp efflux status entry in [18] was “P-gp Substrate”.

Take `C[C@H]1O[C@@H](O[C@H]2[C@@H](O)C[C@H](O[C@H]3[C@@H](O)C[C@H](O[C@H]4CC[C@@]5(C)[C@H](CC[C@@H]6[C@@H]5C[C@@H](O)[C@]5(C)[C@@H](C7=CC(=O)OC7)CC[C@]65O)C4)O[C@@H]3C)O[C@@H]2C)C[C@H](O)[C@@H]1O` [Digoxin, reference compound]: in data set [6], the Papp A→B amounted to 0.22 ×10⁻⁶ cm/s, the apparent permeability from basolateral to apical (Papp B→A) amounted to 12.6 ×10⁻⁶ cm/s, the efflux ratio came out at 58.6 and the recovery was 89.9%. Moreover, the “Recovery% (BL-AP)” value in [11] was determined as 92.72%. Further, the “Recovery% (BL-AP)” value in data set [12] worked out at 93.20%. Also, in data set [14], the apparent permeability from apical to basolateral (Papp A→B) amounted to 0.62 ×10⁻⁶ cm/s, the apparent permeability from basolateral to apical (Papp B→A) was found to be 13.9 ×10⁻⁶ cm/s and the efflux ratio was determined as 22.7. The recovery in data set [15] was determined as 82.4%.

Regarding `Cc1ccc(NC(=O)c2ccc(CN3CCN(C)CC3)cc2)cc1Nc1nccc(-c2cccnc2)n1` [Imatinib, imatinib], in data set [18], the P-gp efflux status result was “P-gp Substrate”.

With `COCCc1ccc(OCC(O)CNC(C)C)cc1` (stereo not shown) [Metoprolol, reference compound], in data set [6], the Papp A→B was found to be 18.8 ×10⁻⁶ cm/s, the basolateral-to-apical permeability (Papp B→A) was determined as 19.4 ×10⁻⁶ cm/s and the recovery stood at 95.3%. The “Recovery% (BL-AP)” value in [11] turned out to be 95.54%. Besides, the “Recovery% (BL-AP)” value in data set [12] was 99.15%. Besides, in data set [14], the apical-to-basolateral permeability (Papp A→B) is 31.6 ×10⁻⁶ cm/s, the basolateral-to-apical permeability (Papp B→A) came out at 28.1 ×10⁻⁶ cm/s and the efflux ratio came out at 0.89. This compound came in with a recovery in data set [15] of 112%.
